The source of these data is patent US12214080B2, “Micronized lipids” (MCAL Therapeutics Inc., priority 2021, dated 2025).

Entries after “also recorded” stand apart in the source; their conditions may differ.

The subject of one series is healthy dogs. Briefly: Tear film break-up time (TBUT) after topical ocular administration. Particulars: 5 healthy adult dogs, single administration (FIG. 6). The series is classed as in vivo, dog. As for the experimental part:
(§1) A non-GLP topical ocular administration dose range-finding pharmacology and toxicity study of MCAL-201 was conducted in naïve dogs. The primary study objective was to assess the tolerability of topical ocular administration of MCAL-201 in dogs with a secondary objective to obtain data supporting pharmacological activity in healthy dogs.
(§2) The effects of vehicle and 0.1, 0.5, 1, 3 and 10 mg/mL MCAL-201 delivered as a 35 μL drop bilaterally QD (0.0035, 0.0175, 0.035, 0.105 and 0.35 mg/eye/day) were evaluated in Part I. The dosing regimen is summarized in 3.
(§3) Scoring of the ocular surface and anterior segment of the eye was performed using the SPOTS system by a board-certified veterinary ophthalmologist. SPOTS was performed for each concentration evaluated. To measure TBUT, fluorescein was instilled in the eye and the eye was manually closed and then gently opened to simulate a blink. The time interval between the opening of the eye and the first sign of disruption of the uniform tear film, as indicated by breaks in the fluorescein was recorded in seconds. The procedure was repeated three times on both eyes, first right than left eye. After BID dosing with 10 mg/mL MCAL-201, SPOTS was also performed at 48 hours after the last dose.

Series [1] is described as follows: Solubility and general physicochemical properties of MCAL-201. As for the experimental part:
The general and physiochemical properties of MCAL-201 are: • 1,2-EPRG has a molecular weight of 611.05 g/mol • Empirical formula: C39H78O4 • Appearance: White powder • Particle size: 1-10 μm (post micronization) • Hygroscopicity: Low • Chirality: Racemic • Enantiomeric excess: 0 • Melting point: 57° C. • Solubility: Insoluble in water. Soluble in chloroform (40 mg/mL) and castor oil (25 mg/mL)
However, preparation of a water soluble cyclodextrin inclusion complex of MCAL-201 was used in nonclinical efficacy studies. In addition, solutions of MCAL-201 in castor oil which can be emulsified to micron sized liquid particles in aqueous buffers can be used to deliver MCAL-201 directly to the tear film lipid layer.

A short description of series [2]: Chemical and isomeric stability (1,2-EPRG to 1,3-EPRG acyl migration), NMR analysis. The series is classed as physicochemical. An excerpt:
This led to development of the delivery of solid MCAL-201 as a suspension of crystalline or amorphous micronized solid particle suspended in a water-based formulation isotonic with tear. Although MCAL-201 crystalline drug substance floated on phosphate buffered saline (PBS) it could be suspended following micronization to 1-10 micron particles which could be stably suspended in PBS with the aid of polysorbate 80 as a wetting agent and xanthan gum to adjust density and viscosity of the drug product.

The subject of a further series is naïve dogs. Briefly: Non-GLP topical ocular dose range-finding toxicity and tolerability study (SPOTS, IOP, STT). The series is classed as in vivo. As for the experimental part:
as §1, §2, §3

The nature of series [3]: Physical stability of the micronized suspension toward separation of particles. Format: physicochemical. Particulars: suspension in PBS with polysorbate 80 and xanthan gum, room temperature.
Text: Treatment of these particles with poly-sorbate 80 (0.3% w/w) as a wetting agent affords a suspension of the micronized particles in a mixture of xanthan gum (0.1-0.3% w/w, See FIG. 3) in Phosphate Buffered Saline (PBS, pH 6-8, 260-320 mOsm/L) suitable for administration as a stably suspended topical drop or suspension for injection.

As to `CCCCCCCCCCCCCCCCCCCCOCC(CO)OC(=O)CCCCCCCCCCCCCCC` (racemic) [MCAL-201, 1-O-eicosanyl-2-palmitoyl-rac-glycerol], in the series on healthy dogs, the “Tear film break-up time (TBUT)” value is “extended TBUT”. Also, the Hygroscopicity result in series [1] is recorded as “Low”. In series [1] (water), the Solubility in water entry is on record as “Insoluble; also recorded: extreme insolubility”. For the same compound, the “1,3-EPRG isomeric content” value in series [2] (after jet mill micronization, NMR (FIG. 4)) is listed as 1.15 mol %; in series [2] (solid micronized suspension stored at room temperature for 6 weeks, NMR (FIG. 5)) it was 0.0991 mol %. In series [2] (liquid solution phase), the “Long-term chemical stability in the liquid solution phase (acyl migration of the palmitoyl group from 2 to 3 position)” value is on record as “lacked long-term chemical stability”. The “Isomeric stability in the suspension formulation, duration demonstrated” value in series [2] (micronized MCAL-201 in suspension formulation, room temperature) is 6 weeks. Also, the “Isomeric stability in the solid phase compared with solution” value in series [2] (solid phase) is “far greater than in solution”. The “Ocular or systemic adverse events” value in the series on naïve dogs (any time or concentration evaluated (up to 10 mg/mL OU BID for 48 hours)) is “no ocular or systemic adverse events”. Moreover, in the series on naïve dogs (topical ocular 35 μL drop, up to 10 mg/mL OU BID for 48 hours), the Tolerability result is on record as “well tolerated”. In addition, the “Physical stability of the micronized suspension (floating, sinking or aggregation), duration demonstrated” value in series [3] was > 6 months.
